This is an account of results in patent US8114847B2, “Selective inhibitors of translesion DNA replication” (Case Western Reserve University, priority 2005, dated 2012).

Where “and” joins values, the source holds several entries; their conditions need not be identical. Equal entries are not always repeated. Where two headings read alike, the source gives them in different places.

Test [1] concerns the target T1, gp43exo− (bacteriophage T4 DNA polymerase) (Enterobacteria phage T4, UniProt P04415, D219A). The test can be described thus: biochemical.
Test [2] deals with T1, gp43exo− (bacteriophage T4 DNA polymerase). Type of test: biochemical.
Test [3] has the same target. To be noted: cited from earlier work.
The target is the same in test [4]. As to conditions: cited from earlier work; for Kd / kpol: opposite an abasic site, previously determined values (Table 7 footnotes d, e, f not given); for Kd: read-out: KD.
The target is the same in test [5]. The test can be described thus: biochemical. Format: biochemical.
Test [6] has the same target. The experiment in a line: biochemical. As to conditions: for kpol: pseudo-first-order conditions.
For test [7] the target is unchanged. Format: biochemical. As to conditions: 500 μM analogue; 10 μM dNTPs; unmodified 13/20-mer.
The target is the same in test [8]. The test can be described thus: biochemical. Type of test: biochemical. To be noted: 500 μM dNTPs.

T1 sequence (P04415 whole entry D219A, looked up): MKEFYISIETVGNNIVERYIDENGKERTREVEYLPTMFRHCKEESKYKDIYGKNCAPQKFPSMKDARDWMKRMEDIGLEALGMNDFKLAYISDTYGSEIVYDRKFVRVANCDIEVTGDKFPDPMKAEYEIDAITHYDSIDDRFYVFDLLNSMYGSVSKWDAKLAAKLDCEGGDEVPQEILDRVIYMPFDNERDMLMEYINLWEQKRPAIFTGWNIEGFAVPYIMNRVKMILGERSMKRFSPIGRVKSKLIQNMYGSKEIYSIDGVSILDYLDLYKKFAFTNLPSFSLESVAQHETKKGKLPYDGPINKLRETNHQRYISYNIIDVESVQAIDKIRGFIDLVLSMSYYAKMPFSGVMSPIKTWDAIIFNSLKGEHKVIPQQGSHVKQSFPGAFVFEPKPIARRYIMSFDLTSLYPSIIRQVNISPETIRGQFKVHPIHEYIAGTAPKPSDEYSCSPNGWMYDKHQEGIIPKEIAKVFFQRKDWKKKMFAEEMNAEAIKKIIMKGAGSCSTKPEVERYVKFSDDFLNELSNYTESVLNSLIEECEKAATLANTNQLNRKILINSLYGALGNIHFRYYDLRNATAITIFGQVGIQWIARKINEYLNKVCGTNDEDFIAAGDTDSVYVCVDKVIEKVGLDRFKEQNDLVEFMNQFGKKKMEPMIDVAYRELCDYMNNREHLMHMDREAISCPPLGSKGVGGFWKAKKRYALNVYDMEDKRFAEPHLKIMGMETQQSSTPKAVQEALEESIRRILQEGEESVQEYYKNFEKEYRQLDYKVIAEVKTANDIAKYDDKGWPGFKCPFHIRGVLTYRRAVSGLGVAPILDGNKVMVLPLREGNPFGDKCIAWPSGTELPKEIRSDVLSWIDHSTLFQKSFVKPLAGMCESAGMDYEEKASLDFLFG

With `O=c1[nH]cnc2c1ncn2[C@H]1C[C@H](O)[C@@H](COP(=O)(O)OP(=O)(O)OP(=O)(O)O)O1` [dITP], in test [1], the kpol was 0.044 ± 0.003 s⁻¹ and the “kpol lower than that of dATP” value worked out at 3.5 fold. Further, the Kd in test [1] (read-out: KD) stood at 103 ± 14 µM. Further, the “extension beyond dXMP:abasic site mispair” value in test [2] is recorded as “lack of extension”.
Take `c1ccc2[nH]ccc2c1` [indole, reference compound]: the “Catalytic efficiency (kpol/KD)” value in test [3] was 1900 M⁻¹ s⁻¹.
With `O=P(O)(O)OP(=O)(O)OP(=O)(O)OC[C@H]1O[C@@H](n2ccc3cc(C4=CCCCC4)ccc32)C[C@@H]1O` [5-CE-ITP], the Kd in test [4] is roughly 10 µM.
Take `Nc1ncnc2nc[nH]c12` [adenine, reference compound]: the “Catalytic efficiency (kpol/KD)” value in test [3] was 1500 M⁻¹ s⁻¹.
For the compound `Nc1ncnc2c1[nH]c(=O)n2[C@H]1C[C@H](O)[C@@H](COP(=O)(O)OP(=O)(O)OP(=O)(O)O)O1` [8-Oxo dATP], the “incorporation opposite an abasic site” value in test [1] is listed as “no incorporation was observed”.
With `COc1nc(N)nc2c1ncn2[C@H]1C[C@H](O)[C@@H](COP(=O)(O)OP(=O)(O)OP(=O)(O)O)O1` [O^6-methyl dGTP], in test [1], the kpol was 0.98 and 0.98 ± 0.08 s^−1; the “kpol higher/faster than that for dGTP” value is 40 fold. Also, the Kd in test [1] (read-out: KD) was 180 µM and 181 µM. In test [2], the “increase in kext compared with dGTP” value is listed as roughly 20 fold and the kext came to 0.092 ± 0.009 s⁻¹.
`Nc1nc2c(ccn2[C@H]2C[C@H](O)[C@@H](COP(=O)(O)OP(=O)(O)OP(=O)(O)O)O2)c(=O)[nH]1` [7-Deaza dGTP]: in test [1], the kpol was 0.11 and 0.11 ± 0.02 s^−1; the “kpol higher/faster than that for dGTP” value is recorded as roughly 5 fold. Besides, in test [1] (KD), the Kd worked out at 215 µM. Moreover, the “extension beyond dXMP:abasic site mispair” value in test [2] is “lack of extension”.
Turning to `Nc1ccc2[nH]ccc2c1` [5-amino-indole], the “Catalytic efficiency (kpol/KD)” value in test [5] came out at 500 M⁻¹ s⁻¹.
Consider `CNc1ncnc2c1ncn2[C@H]1C[C@H](O)[C@@H](COP(=O)(O)OP(=O)(O)OP(=O)(O)O)O1` [N^6-methyl dATP], for which, in test [1], the kpol is 5.6+/−0.6 and 5.3 and 5.6 ± 0.6 s^−1; the “kpol higher/faster than that for dATP” value amounted to 40 fold. This compound also displayed a dissociation constant Kd in test [1] (KD) of 190 µM. The compound also yielded a kext in test [2] of 0.71 ± 0.04 s⁻¹.
Take `Nc1nc(N)c2ncn([C@H]3C[C@H](O)[C@@H](COP(=O)(O)OP(=O)(O)OP(=O)(O)O)O3)c2n1` [2,6-DAPTP]: in test [1], the kpol is 2.4 s⁻¹ and 2.4 ± 0.3 s⁻¹; the “kpol higher/faster than that for dATP” value is listed as 16 fold. Moreover, the Kd in test [1] (read-out: KD) is 900 µM. This compound registered a kext in test [2] of 0.016 ± 0.003 s⁻¹.
On to `Nc1ncnc2c1ccn2[C@H]1C[C@H](O)[C@@H](COP(=O)(O)OP(=O)(O)OP(=O)(O)O)O1` [7-Deaza dATP], for which, in test [1], the “catalytic efficiency higher than that for 7-deaza dGTP” value was greater than 10 fold; the kpol is 1.4 and 1.4 ± 0.1 s^−1; the “kpol higher/faster than that for dATP” value was roughly 10 fold. Further, the Kd in test [1] (KD) was 200 µM and 197 µM. In test [2], the kext came to 0.32 ± 0.03 s⁻¹.
Consider `CNc1nc2c(ncn2[C@H]2C[C@H](O)[C@@H](COP(=O)(O)OP(=O)(O)OP(=O)(O)O)O2)c(=O)[nH]1` [N^2-methyl dGTP], for which, in test [1], the kpol is 0.12 and 0.12 ± 0.02 s^−1; the “kpol higher/faster than that for dGTP” value is reported as roughly 5 fold. For the same compound, the Kd in test [1] (read-out: KD) amounted to 245 µM.
For `O=P(O)(O)OP(=O)(O)OP(=O)(O)OC[C@H]1O[C@@H](n2cnc3c(Cl)ncnc32)C[C@@H]1O` [6-Cl-dATP], in test [1], the kpol came out at 0.28 ± 0.02 s⁻¹ and the “kpol higher/faster than that for dATP” value is 2 fold. For the same compound, in test [1] (read-out: KD), the Kd was found to be 83 ± 16 µM. Further, in test [2], the kext came to 0.031 ± 0.003 s⁻¹.
As to `Nc1nc2c(ncn2[C@H]2C[C@H](O)[C@@H](COP(=O)(O)OP(=O)(O)OP(=O)(O)O)O2)c(=O)[nH]1` [dGTP], in test [4], the kpol is 0.023 ± 0.005 s⁻¹ and the Kd was 130 µM. In addition, in test [2], the kext amounted to 0.005 ± 0.001 s⁻¹.
Regarding `Nc1ccc2c(ccn2[C@H]2C[C@H](O)[C@@H](COP(=O)(O)OP(=O)(O)OP(=O)(O)O)O2)c1` [5-AITP, 5-Amino-Indole-2′-Deoxyribofuranoside 5″-Triphosphate], the kpol/KD in test [6] (Template A) is 0.46 × 10^3 M^−1S^−1; in test [6] (Template T), 0.53 × 10^3 M^−1S^−1; in test [5], 700 M⁻¹ s⁻¹. In addition, the kpol in test [6] (Template A) was 0.21 ± 0.01 s⁻¹; in test [6] (Template T), 0.071 ± 0.003 s⁻¹; in test [5] it was 0.17 ± 0.01 s⁻¹. The “inhibition of normal DNA synthesis” value in test [7] is listed as “do not inhibit normal DNA synthesis”. The “inhibition of replication beyond an abasic site” value is on record as “inhibition is not observed” in test [8] (20 μM analogue) and “no effect on the kinetics of elongation” in test [8] (350 μM analogue).
For the compound `O=P(O)(O)OP(=O)(O)OP(=O)(O)OC[C@H]1O[C@@H](n2ccc3ccccc32)C[C@@H]1O` [IndTP, reference compound], in test [3], the kpol was 0.28 ± 0.07 s⁻¹. In addition, in test [3], the kpol/KD was 1900 M⁻¹ s⁻¹. In addition, in test [3] (read-out: KD), the Kd is 145 ± 10 µM. Moreover, in test [7], the “inhibition of normal DNA synthesis” value is recorded as “do not inhibit normal DNA synthesis”. Moreover, the “inhibition of replication beyond an abasic site” value was “inhibition is not observed” in test [8] (20 μM analogue) and “no effect on the kinetics of elongation” in test [8] (350 μM analogue).
For the compound `Fc1ccc2[nH]ccc2c1` [5-fluoro-indole], in test [5], the “Catalytic efficiency (kpol/KD)” value stood at 2000 M⁻¹ s⁻¹.
On to `O=P(O)(O)OP(=O)(O)OP(=O)(O)OC[C@H]1O[C@@H](n2ccc3cc(F)ccc32)C[C@@H]1O` [5-FITP, 5-Fluoro-indole-2′-deoxyribofuranoside 5′-Triphosphate], for which the kpol/KD is 0.6 × 10^3 M^−1S^−1 in test [6] (Template A), 0.29 × 10^3 M^−1S^−1 in test [6] (Template T) and 2000 M⁻¹ s⁻¹ in test [5]. Moreover, the kpol is 0.11 ± 0.06 s⁻¹ in test [6] (Template A), 0.040 ± 0.003 s⁻¹ in test [6] (Template T) and 0.30 ± 0.03 s⁻¹ in test [5]. Further, the “inhibition of normal DNA synthesis” value in test [7] is on record as “do not inhibit normal DNA synthesis”. Also, the “inhibition of replication beyond an abasic site” value is given as “inhibition is not observed” in test [8] (20 μM analogue) and “no effect on the kinetics of elongation” in test [8] (350 μM analogue).
In the case of `Nc1ncnc2c1ncn2[C@H]1C[C@H](O)[C@@H](COP(=O)(O)OP(=O)(O)OP(=O)(O)O)O1` [dATP], in test [4], the “overall catalytic efficiency opposite an abasic site greater than dGTP” value was roughly 35 fold; the kpol was 0.15 s⁻¹ and 0.15 ± 0.01 s⁻¹; the Kd was 35 µM. For the same compound, in test [3], the kpol result is on record as “≈ 0.15 s^−1” and the kpol/KD is 4300 M⁻¹ s⁻¹. For the same compound, in test [2], the kext came to 0.25 ± 0.01 s⁻¹.
For `O=[N+]([O-])c1ccc2[nH]ccc2c1` [5-nitro-indole], the “Catalytic efficiency (kpol/KD)” value in test [3] was 7e+06 M⁻¹ s⁻¹.
With `c1ccc(-c2ccc3[nH]ccc3c2)cc1` [5-phenyl-indole], the “Catalytic efficiency (kpol/KD)” value in test [5] came out at 3.8e+06 M⁻¹ s⁻¹.
Regarding `Nc1nc(Cl)c2ncn([C@H]3C[C@H](O)[C@@H](COP(=O)(O)OP(=O)(O)OP(=O)(O)O)O3)c2n1` [6-Cl-2APTP], the kpol in test [1] is 0.12 and 0.12 ± 0.01 s^−1. Further, the Kd in test [1] (read-out: KD) is 71 ± 20 µM. Further, in test [2], the “elongated slower compared to dATP, N^7-deaza dATP and N^6-methyl dATP” value was roughly 10 fold; the kext was 0.033 ± 0.004 s⁻¹.

For orientation: Kd means a measure of binding affinity in units of concentration.
